What all share (format): cell-based, human
One series concerns U87 cells. The experiment in a line: Antisense experiment: hypoxia-induced cell death in U87 cells (acridine orange staining). The conditions noted are these: hypoxia 72 hours. The protocol:
U251 and U87 cells were plated on 100 mm plates and grown to approximately 80% confluence, then incubated in hypoxic conditions for a time course of 0, 24, 48, 72 and 96 hours. Following incubation under hypoxia, the cells were trypsinized from the plates and centrifuged to collect a cell pellet. Cells were resuspended in 100 μl of media and 4 μl of acridine orange (100 μg/ml) and ethidium bromide (100 μg/ml) were added. A 10 μl aliquot was removed, placed on a microscope slide and a coverslip was applied. Using a fluorescein filter, the percentage of dead cells was determined by counting the number of DNA condensation nuclei. At least 200 cells were counted per sample as previously described (5).
Antisense oligonucleotide (5′-[…]-3′ (SEQ ID NO:13)) (Sigma Genesys, Oakville, ON) and sense oligonucleotide (5′-[…]-3′ (SEQ ID NO:14)) were complimentary to bases −1 to +19 of the human Bnip3 gene. Random sequence oligonucleotide (5′-GCAGTCAGCGACGTCGMGC-3′ (SEQ ID NO:15)) contained the same bases in a scrambled sequence. Oligonucleotides were phosphorothioate-modified to prevent degradation. […] Cell death was determined via acridine orange staining or cells were lysed and protein extracts were analyzed for BNIP3 expression as described above.

For a further series, the system named is BNIP3. Nature of the series: Antisense experiment: BNIP3 expression in U87 cells under hypoxia (Western blot). To be noted: hypoxia 72 hrs. The method, then:
U251 cells were lysed for total protein or nuclear proteins as previously published (5). The lysates ([…]) were separated by SDS-PAGE and transferred to nitrocellulose membranes. Membranes were blocked in 5% skim milk and western blotted with monoclonal antibodies against BNIP3 (1:1000) (5), pro-caspase 8 antibodies (1:1000, Upstate Biotech.), HDAC1 antibodies (1:1000, Upstate Biotech),) or β-actin (1:50, Sigma). The western blots were visualized with chemiluminescence (NEN-Dupont).
Antisense oligonucleotide (5′-[…]-3′ (SEQ ID NO:13)) (Sigma Genesys, Oakville, ON) and sense oligonucleotide (5′-[…]-3′ (SEQ ID NO:14)) were complimentary to bases −1 to +19 of the human Bnip3 gene. Random sequence oligonucleotide (5′-GCAGTCAGCGACGTCGMGC-3′ (SEQ ID NO:15)) contained the same bases in a scrambled sequence. Oligonucleotides were phosphorothioate-modified to prevent degradation. Oligonucleotides were diluted in Opti-MEM (Gibco BRL), mixed with oligofectamine (Invitrogen) and incubated with U87 cells for 4 hours then hypoxic media was added and cells were further incubated under hypoxia for 72 hours. Cell death was determined via acridine orange staining or cells were lysed and protein extracts were analyzed for BNIP3 expression as described above.
Background: A western blot detects proteins with antibodies after separation by electrophoresis.

Series [1] relates to glioblastoma cell lines U87 and U251. Nature of the series: Cell death after transfection of glioblastoma cell lines (chromatin condensation). To be noted: U87 and U251 cells transfected, normoxia. The method, then: (§1) Human glioblastoma cell lines U251 and U87 (obtained from Dr. V. W. Yong, University of Calgary and Dr. C. Hao, University of Alberta, respectively) were cultured in Dulbecco's modified essential medium (DMEM), supplemented with 10% fetal bovine serum, 2 mM L-glutamine, 1 mM MEM sodium pyruvate, 0.3% glucose and 100 units/mI penicillin/streptomycin. The cell lines were grown in a humidified incubator in the presence of 5% CO2 at 37° C. Cells were maintained under hypoxic conditions (less than 1% oxygen) at 37° C. within a hypoxic chamber (Forma Scientific) filled with 5% CO2 balanced with N2. Transfection experiments were carried out with the U87 and U251 cell lines. The cells were plated 48 hours prior to transfection to achieve approximately 40% confluence. The U87 cell line was transfected using Geneporter™ transfection reagent (GTS) and the U251 cell line using Effectene™ transfection reagent (Qiagen) as per the manufacturer's instructions.
After transfection of U87 and U251 cell lines with 2 μg of pCDNA3, pCDNA3-BNIP3, pCDNA3-BNIP3ΔTM, or pCDNA3-356delA BNIP3, the cells were incubated for 24 and 48 hours, then trypsinized and centrifuged and then resuspended in 2 ml of media. A 200 μl aliquot was placed in a ThermoShandon cytospin at 1000 RPM for 5 minutes with medium-low acceleration. The slides obtained from the cytospin were immediately fixed with 3.7% formaldelyde in 1×PBS at RT for one hour. Following three washes with 1' PBS (0.1% NP40), slides were incubated with primary BNIP3 antibody (1:700 dilution in […], 1×PBS, 0.1% NP40) for 1 hour at RT. The slides were then washed three times in PBS (0.1% NP40) and incubated with goat anti-rabbit fluorescein isothiocyanate (FITC)-conjugated secondary antibody (Sigma) for 1 hour. […] 200 or more cells were counted per sample to assess DNA condensation. Fluorescence was visualized and captured using an Olympus BX51 fluorescent microscope with a Photometrics Cool Snap CF camera and an Olympus IX70 inverted confocal laser microscope using Fluoview 2.0 software.

In series [2] the test system is U251 cells. Nature of the series: Determination of mitochondrial membrane potential (TMRM staining) in transfected U251 cells. The conditions noted are these: U251 cells co-transfected with GFP. The method, then: U251 cells were grown in chamber slides and were co-transfected with pEGFP N1 (Clontech) and pCDNA3, pCDNA3-BNIP3, pCDNA3-BNIP3ΔTM, and pCDNA3-356delA BNIP3 using Geneporter™ transfection reagent (GTS) as per the manufacturer's instructions. After 16 h of incubation, the slides were washed twice with 1×Hepes-buffered saline solution (HBSS) and tetramethylrohdamine (TMRM; Molecular Probes) was added to the slides at […] final concentration and incubated in the dark at RT for 10 min. The slides were then viewed on an Olympus IX70 inverted confocal laser microscope using Fluoview 2.0 software.

The subject of series [3] is U251 cells. Nature of the series: Hypoxia-induced cell death in transfected U251 cells (β-galactosidase viability assay). The protocol:
as §1
U87 and U251 cells were co-transfected in 100 mm culture plates with 2 μg of pcDNA3, pcDNA3-BNIP3, pcDNA3-BNIP3ΔTM, pcDNA3-356delA BNIP3 plasmid DNA and 0.5 μg of β-galactosidase reporter plasmid DNA. […] The percentage of dead cells was calculated by assessing the number of rounded, condensed, blue-staining cells in the total population of flat, blue-staining cells. At least 200 cells were counted for each experiment.

The values below come from patent publication US7393637B2, “Methods for detecting cancer and monitoring cancer progression” (University of Manitoba, priority 2003, dated 2008).

Take “5′-GCGCTCCGTTCTGCGACATG-3′ (SEQ ID NO:13) (listed as DNA, chemistry not given here) [antisense oligonucleotides against BNIP3, antisense oligonucleotide to bases −1 to +19 of the human Bnip3 gene]”: in the series on U87 cells, the hypoxia-induced cell death result was “inhibited hypoxia-induced cell death”. For the same molecule, in the series on BNIP3, the BNIP3 expression result was “effectively blocks BNIP3 expression”.
Take “235—236insA BNIP3: truncated BNIP3, frame shift in the PEST domain by insertion of A at nucleotide 236 (SEQ ID NO:5, protein SEQ ID NO:6)”: the “induction of cell death” value in series [1] is “failed to induce cell death”.
As for “wt BNIP3: wild-type Bcl-2 Nineteen Kilodalton Interacting Protein 3 (SEQ ID NO:2), expressed from transfected cDNA”, the “induction of cell death” value in series [1] was “inducing cell death”. For the same molecule, the “TMRM staining (mitochondrial membrane potential, Δψm)” value in the series on U251 cells [2] was “TMRM staining decreased”.

B1: 356delA BNIP3: truncated BNIP3, frame shift in the CD domain by deletion of A at nucleotide 356 (SEQ ID NO:3, protein SEQ ID NO:4) (protein, listed as Homo sapiens)
chain: MSQNGAPGMQEESLQGSWVELHFSNNGNGGSVPASVSIYNGDMEKILLDAQHESGRSSSKSSHCDSPPRSQTPQDTNRASETDTHSIGEKNSSQSEEDDIERRKEVESILKKNSDWIWVGQVGRKIFPPRSSSLNTRSARPPSA
In the case of B1, the cell death with U251 cells [3] (U251 cells transfected with cDNA, hypoxic conditions 72 hours, vector alone 40%, normoxia 10%) came to 20%. In addition, in the series on U251 cells [3] (U251 cells, hypoxic conditions), the “reduction of cell death versus vector alone” value stood at 50%. In addition, the “induction of cell death” value in series [1] is “fails to induce cell death”. For the same molecule, in the series on U251 cells [2], the “TMRM staining (mitochondrial membrane potential, Δψm)” value is on record as “failed to change TMRM fluorescence”.
